Results as given in PubChem BioAssay (NCI).
Where “and” joins values, the source holds several entries; their conditions need not be identical. Identical values can stand only once.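 Results reflect a 48-hour exposure of cells in 96-well plates to compound at five concentrations. GI50 = concentration required for 50% inhibition of growth. At the TGI there is no net growth.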

How the values were obtained:
Assay in all cases: inhibition of tumour cell growth, NCI panel, 48 h
HS 578T breast = tested on: HS 578T breast
CCRF-CEM leukemia = tested on: CCRF-CEM leukemia
NCI-H23 lung = tested on: NCI-H23 lung
SF-268 CNS = tested on: SF-268 CNS
K-562 leukemia = tested on: K-562 leukemia
OVCAR-8 ovarian = tested on: OVCAR-8 ovarian
U251 CNS = tested on: U251 CNS
ACHN renal = tested on: ACHN renal
A549 NSCLC = tested on: A549 NSCLC
HCT-15 colon = tested on: HCT-15 colon

| Structure (SMILES) | GI50 (HS 578T breast) | TGI (HS 578T breast) | GI50 (CCRF-CEM leukemia) | TGI (CCRF-CEM leukemia) | GI50 (NCI-H23 lung) | TGI (NCI-H23 lung) | GI50 (SF-268 CNS) | TGI (SF-268 CNS) | GI50 (K-562 leukemia) | TGI (K-562 leukemia) | GI50 (OVCAR-8 ovarian) | TGI (OVCAR-8 ovarian) | GI50 (U251 CNS) | TGI (U251 CNS) | GI50 (ACHN renal) | TGI (ACHN renal) | GI50 (A549 NSCLC) | TGI (A549 NSCLC) | GI50 (HCT-15 colon) | TGI (HCT-15 colon) |
| --- | --- | --- | --- | --- | --- | --- | --- | --- | --- | --- | --- | --- | --- | --- | --- | --- | --- | --- | --- | --- |
| CSc1ccc(C(=O)/C=C/c2ccc(F)cc2)cc1 | > 100 µM | > 100 µM | 25.5 µM | 82.6 µM | > 100 µM | > 100 µM | 75.9 µM | > 100 µM | 25.9 µM | 65.3 µM | > 100 µM | > 100 µM | 32.9 µM | > 100 µM | > 100 µM | > 100 µM | 64.4 µM | > 100 µM | 29.4 µM | > 100 µM |
| CN(C)CCN1C(=O)c2cccc3c(-c4ccc5ncn(C6CCCCC6)c5c4)ccc(c23)C1=O | 3.51 µM | 20.8 µM | 1.84 µM | 7.22 µM | 1.35 µM | 3.82 µM | 2.73 µM | 12.8 µM | 1.27 µM | > 100 µM | 1.21 µM | 9.76 µM | 2 µM | 11.5 µM | 0.539 µM | 2.36 µM | 1.12 µM | 2.56 µM | 1.34 µM | 10.6 µM |
| C[C@@H]1CCC2[C@@H](C)[C@H](OC(=O)CCC(=O)NCCNC(=O)Cc3cc(=O)oc4cc(N(C)C)ccc34)O[C@@H]3O[C@]4(C)CC[C@@H]1C23OO4 (stereo partly specified) | 3.21 µM | > 33.1 µM | 1.57 µM | > 75.7 µM | 0.749 µM | 46.6 µM | 5.25 µM | > 65.2 µM | 0.348 µM | 13.8 µM | 0.906 µM | > 47.8 µM | 1.33 µM | 19.1 µM | 2.96 µM | 17.1 µM | 4.52 µM | 23.1 µM | 0.318 µM | 21 µM |
| COC(=O)c1cccc2c1Oc1ccccc1S2 | – | > 100 µM | – | 56.9 µM | – | – | – | > 100 µM | – | > 100 µM | – | > 100 µM | – | > 100 µM | – | > 100 µM | – | > 100 µM | – | > 100 µM |
| C=C1C(=O)O[C@H]2[C@H]1CC/C(COC(=O)NCc1cccc(OC)c1)=C\CC[C@@]1(C)O[C@@H]21 | 13 µM | 37.8 µM | 1.14 µM | 4.76 µM | 3.07 µM | 10.3 µM | 3.21 µM | 12.1 µM | 1.93 µM | 6.79 µM | 2.03 µM | 5.63 µM | 3.65 µM | 14.9 µM | 1.17 µM | 2.41 µM | 3.1 µM | 12.8 µM | 1.38 µM | 2.82 µM |
| Clc1ccc2c(NCCN3CCN(c4ccnc(N5CCCC5)n4)CC3)ccnc2c1 | 3.54 µM | 19.8 µM | 3.65 µM | 32.3 µM | 6.88 µM | 22.7 µM | 2.73 µM | 11.5 µM | 1.47 µM | 9.76 µM | 4.39 µM | 18.5 µM | 3.09 µM | 10.1 µM | 2.68 µM | 8.01 µM | 4.23 µM | 16.8 µM | 2.1 µM | 7.57 µM |
| ClC1=C(Cl)C(Cl)=C(Cl)C1=Cc1ccc(Cl)cc1Cl | 0.522 µM | > 100 µM | 0.352 µM | 3.98 µM | 0.281 µM | 1.14 µM | 0.308 µM | 1.43 µM | 0.341 µM | 2 µM | – | – | 0.39 µM | 1.49 µM | – | – | 1.7 µM | 4.52 µM | 0.3 µM | 1.3 µM |
| COc1ccc(-c2cc3nccn3c(Nc3ncccc3C(N)=O)n2)cc1OC | > 31.8 µM | > 100 µM | 0.827 µM | > 100 µM | > 39.2 µM | > 100 µM | 3.65 µM | > 100 µM | 4.59 µM | > 100 µM | 0.955 µM | > 100 µM | > 100 µM | > 100 µM | 0.445 µM | > 100 µM | 3 µM | > 100 µM | 0.659 µM | > 100 µM |
| CCOC(CN(C)C(=O)OCC(Cl)(Cl)Cl)OCC | – | > 100 µM | – | > 100 µM | – | > 100 µM | – | > 100 µM | – | > 100 µM | – | > 100 µM | – | > 100 µM | – | > 100 µM | – | > 100 µM | – | > 100 µM |
| COc1cc2c(cc1-c1c(C)noc1C)ncc1[nH]c(=O)n([C@H](C)c3ccccn3)c12 | 0.295 µM | > 100 µM | 1.03 µM | > 100 µM | 6.22 µM | > 100 µM | 11.7 µM | > 100 µM | 0.75 µM | > 100 µM | 3.54 µM | > 100 µM | 8.82 µM | > 100 µM | 1.2 µM | > 100 µM | 6.17 µM | > 100 µM | 0.807 µM | > 100 µM |
| c1ccc([P+](CCC[P+](c2ccccc2)(c2ccccc2)c2ccccc2)(c2ccccc2)c2ccccc2)cc1 | 11.8 µM | 85.4 µM | 7.26 µM | > 100 µM | 18.8 µM | > 100 µM | 7.71 µM | > 100 µM | 4.53 µM | > 100 µM | 10.5 µM | > 100 µM | – | > 100 µM | – | > 100 µM | 14.5 µM | > 100 µM | > 100 µM | > 100 µM |
| O=C1/C(=C/c2ccc(C(F)(F)F)cc2)COc2ccc(O)cc21 | 2.7 µM | – | 0.228 µM | 1.42 µM | 2.14 µM | 5.38 µM | 2.75 µM | 13.6 µM | – | – | 3.26 µM | 11.1 µM | 1.66 µM | 3.06 µM | 1.84 µM | 3.53 µM | 11.8 µM | 24.9 µM | 1.66 µM | 3.47 µM |
| CO[C@@]12[C@H](COC(N)=O)C3=C(C(=O)C(C)=C(N)C3=O)N1C[C@@H]1N[C@@H]12 | 4.21 µM and 5.26 µM | 15.3 µM and 14 µM and 52.1 µM | 0.126 µM and 0.0625 µM | 13.2 µM and 1.96 µM and 18.6 µM | 0.77 µM | 1.43 µM and 3.86 µM and 4.56 µM | – | – | 1.52 µM | 19.6 µM and 15.6 µM and > 100 µM | 1.52 µM and 0.925 µM | – | – | – | – | 4.88 µM and 1.76 µM | – | 8.52 µM and 25 µM and 2.78 µM | 1.92 µM and 1.67 µM | 10.4 µM and 16.4 µM and 43.4 µM |
| CC(C)[C@H](O)C(=O)N[C@H]1Cc2ccc3c(c2)[C@]24C5=C(N=C(O5)[C@H](C(C)C)NC1=O)c1nc(Cl)c(o1)-c1c(Cl)[nH]c5cccc(c15)-c1cccc2c1N[C@H]4O3 | – | > 10 µM | – | 0.0277 µM | < 0.001 µM | 3.82 µM | < 0.001 µM | 7.32 µM | < 0.001 µM | > 10 µM | – | – | < 0.001 µM | – | – | 5.3 µM | < 0.001 µM | > 10 µM | – | > 10 µM |
